For 29 compounds, IC50 or EC50 (potency, activation or inhibition) results are on record in US9000022B2 (Exelixis Patent Company LLC, priority 2005, dated 2015).

This assay deals with LXRα and/or LXRβ. As to the kind of experiment: Co-transfection assay (LXRE luciferase reporter, CV-1 cells). The class given is cell-based, human. Conditions: tested as described in Example 33; IC50 or EC50 for LXRα and/or LXRβ, isoform not specified; read-out: activity (IC50 or EC50 for LXR). A digest of the protocol:
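Luciferase signal measures LXR-RXR transcriptional activation in transiently transfected CV-1 cells carrying human LXRα or LXRβ, RXRα and a single-copy LXRE reporter. Cells were exposed to compound for 20 h at 37 °C with at most 1% DMSO, using 10 μM final for screening. Potency was derived from 4-parameter fits of 8-point, half-log dose curves averaged over ≥3 runs, and efficacy was expressed as % of a reference agonist.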

Where only a bound is given, the exact number is not on record here.

For `CC(C)(O)c1cn(-c2ccc(-c3cccc(S(C)(=O)=O)c3)cc2)c(-c2c(F)cccc2F)n1` [Example 410, 2-{2-(2,6-difluorophenyl)-1-[3′-(methylsulfonyl)biphenyl-4-yl]-1H-imidazol-4-yl}propan-2-ol], the IC50 or EC50 (potency, activation or inhibition) was 1 to 10 µM.
Regarding `CC(=O)c1cn(-c2ccc(-c3cccc(S(C)(=O)=O)c3)cc2)c(-c2ccccc2C(F)(F)F)n1` [Example 411, 1-{1-[3′-(methylsulfonyl)biphenyl-4-yl]-2-[2-(trifluoromethyl)phenyl]-1H-imidazol-4-yl}ethanone], the IC50 or EC50 (potency, activation or inhibition) is below 1 µM.
With `C/C(=N\O)c1cn(-c2ccc(-c3cccc(S(C)(=O)=O)c3)cc2)c(-c2ccccc2C(F)(F)F)n1` [Example 412, 1-{1-[3′-(methylsulfonyl)biphenyl-4-yl]-2-[2-(trifluoromethyl)phenyl]-1H-imidazol-4-yl}ethanone oxime], the IC50 or EC50 (potency, activation or inhibition) is below 1 µM.
Under `CC(C)S(=O)(=O)c1cccc(-c2ccc(-n3cc(C(C)(C)O)nc3-c3ccccc3C(F)(F)F)cc2)c1` [Example 413] stands below 1 µM; under `CCS(=O)(=O)c1cccc(-c2ccc(-n3cc(C(C)(C)O)nc3-c3ccccc3Cl)cc2)c1` [Example 415, 2-{2-(2-chlorophenyl)-1-[3′-(ethylsulfonyl)biphenyl-4-yl]-1H-imidazol-4-yl}propan-2-ol], 1 to 10 µM; under `CC(C)(O)c1cn(-c2ccc(-c3cccc(S(C)(=O)=O)c3)cc2)c(-c2c(F)cccc2Cl)n1` [Example 416, 2-{2-(2-chloro-6-fluorophenyl)-1-[3′-(methylsulfonyl)biphenyl-4-yl]-1H-imidazol-4-yl}propan-2-ol], 1 to 10 µM.
Under `CC(C)(O)c1cn(-c2ccc(-c3cccc(S(C)(=O)=O)c3)cc2Cl)c(-c2ccccc2Cl)n1` [Example 417, 2-{1-[3-chloro-3′-(methyl-sulfonyl)biphenyl-4-yl]-2-(2-chlorophenyl)-1H-imidazol-4-yl}propan-2-ol] stands below 1 µM.
Take `Cc1cc(-c2cccc(S(C)(=O)=O)c2)ccc1-n1cc(C(C)(C)O)nc1-c1ccccc1Cl` [Example 418, 2-{2-(2-chlorophenyl)-1-[3-methyl-3′-(methylsulfonyl)biphenyl-4-yl]-1H-imidazol-4-yl}propan-2-ol]: the IC50 or EC50 (potency, activation or inhibition) is below 1 µM.
As for `CCS(=O)(=O)c1cccc(-c2ccc(-n3cc(C(C)(C)O)nc3-c3c(F)cccc3F)cc2)c1` [Example 419, 2-{2-(2,6-difluorophenyl)-1-[3′-(ethylsulfonyl)biphenyl-4-yl]-1H-imidazol-4-yl}propan-2-ol], the figure is 1 to 10 µM.
On to `CC(C)(O)c1cn(-c2ccc(-c3cccc(S(C)(=O)=O)c3)cn2)c(-c2ccccc2C(F)(F)F)n1` [Example 420, 2-(1-{5-[3-(methyl-sulfonyl)phenyl]pyridin-2-yl}-2-[2-(trifluoromethyl)phenyl]-1H-imidazol-4-yl)propan-2-ol], for which the IC50 or EC50 (potency, activation or inhibition) is 1 to 10 µM.
As for `CC(C)(O)c1cn(-c2ccc(-c3cccc(S(C)(=O)=O)c3)nc2)c(-c2ccccc2C(F)(F)F)n1` [Example 421, 2-(1-{6-[3-(methyl-sulfonyl)phenyl]pyridin-3-yl}-2-[2-(trifluoromethyl)phenyl]-1H-imidazol-4-yl)propan-2-ol], the figure is 1 to 10 µM; as for `CC(C)(O)c1cn(Cc2ccccc2Cl)c(-c2ccc(-c3cccc(S(C)(=O)=O)c3)cc2)n1` [Example 443, 2-(1-(2-chlorobenzyl)-2-(3′-(methylsulfonyl)biphenyl-4-yl)-1H-imidazol-4-yl)propan-2-ol], below 1 µM.
Regarding `CC(C)(O)c1cn(Cc2cccc(Cl)c2Cl)c(-c2ccc(-c3cccc(S(C)(=O)=O)c3)cc2)n1` [Example 444, 2-(1-(2,3-dichlorobenzyl)-2-(3′-(methylsulfonyl)biphenyl-4-yl)-1H-imidazol-4-yl)propan-2-ol], the IC50 or EC50 (potency, activation or inhibition) is below 1 µM.
Under `CC(C)(O)c1nc(-c2ccc(-c3cccc(S(C)(=O)=O)c3)cc2Cl)n(-c2c(Cl)cccc2Cl)c1Cl` [Example 445, 2-(5-chloro-2-(3-chloro-3′-(methylsulfonyl)biphenyl-4-yl)-1-(2,6-dichlorophenyl)-1H-imidazol-4-yl)propan-2-ol] stands below 1 µM; under `CON(C)C(=O)c1ccc(-c2ccc(-n3cc(C(C)(C)O)nc3-c3c(F)cccc3Cl)c(Cl)c2)cc1S(C)(=O)=O` [Example 448, 3′-chloro-4′-(2-(2-chloro-6-fluorophenyl)-4-(2-hydroxypropan-2-yl)-1H-imidazol-1-yl)-N-methoxy-N-methyl-3-(methylsulfonyl)biphenyl-4-carboxamide], above 10 µM; under `CC(C)(O)c1cn(-c2ccc(-c3cccc(S(C)(=O)=O)c3)cc2F)c(Cc2cccc(Cl)c2Cl)n1` [Example 449, 2-(2-(2,3-dichlorobenzyl)-1-(3-fluoro-3′-(methylsulfonyl)biphenyl-4-yl)-1H-imidazol-4-yl)propan-2-ol], below 1 µM.
Under `CCS(=O)(=O)c1cccc(-c2ccc(-n3cc(C(C)(C)O)nc3Cc3cccc(Cl)c3Cl)c(F)c2)c1` [Example 450, 2-(2-(2,3-dichlorobenzyl)-1-(3′-(ethylsulfonyl)-3-fluorobiphenyl-4-yl)-1H-imidazol-4-yl)propan-2-ol] stands below 1 µM.
Take `CC(C)(O)c1cn(-c2ccc(-c3cccc(S(C)(=O)=O)c3)cc2Cl)c(C(C)(C)c2cccc(Cl)c2Cl)n1` [Example 451, 2-(1-(3-chloro-3′-(methyl-sulfonyl)biphenyl-4-yl)-2-(2-(2,3-dichlorophenyl)propan-2-yl)-1H-imidazol-4-yl)propan-2-ol]: the IC50 or EC50 (potency, activation or inhibition) is below 1 µM.
On to `CCS(=O)(=O)c1cccc(-c2ccc(-n3cc(C(C)(C)O)nc3C(C)(C)c3cccc(Cl)c3Cl)c(Cl)c2)c1` [Example 452, 2-(1-(3-chloro-3′-(ethyl-sulfonyl)biphenyl-4-yl)-2-(2-(2,3-dichlorophenyl)propan-2-yl)-1H-imidazol-4-yl)propan-2-ol], for which the IC50 or EC50 (potency, activation or inhibition) is below 1 µM.
As for `CC(C)(O)c1cn(-c2ccc(-c3ccc(C(N)=O)c(S(C)(=O)=O)c3)cc2Cl)c(-c2c(F)cccc2Cl)n1` [Example 453], the figure is 1 to 10 µM; as for `COc1ccc(-c2ccc(-n3cc(C(C)(C)O)nc3-c3c(F)cccc3Cl)c(Cl)c2)cc1S(C)(=O)=O` [Example 454, 2-(1-(3-chloro-4′-methoxy-3′-(methylsulfonyl)biphenyl-4-yl)-2-(2-chloro-6-fluorophenyl)-1H-imidazol-4-yl)propan-2-ol], 1 to 10 µM; as for `COc1ccc(-c2ccc(-n3cc(C(C)(C)O)nc3-c3cccc(Cl)c3Cl)cc2)cc1S(C)(=O)=O` [Example 455, 2-(2-(2,3-dichlorophenyl)-1-(4′-methoxy-3′-(methylsulfonyl)biphenyl-4-yl)-1H-imidazol-4-yl)propan-2-ol], below 1 µM.
`COc1ccc(-c2ccc(-n3cc(C(C)(C)O)nc3Cc3cccc(Cl)c3Cl)c(C)c2)cc1S(C)(=O)=O` [Example 456, 2-(2-(2,3-dichlorobenzyl)-1-(4′-methoxy-3-methyl-3′-(methyl-sulfonyl)biphenyl-4-yl)-1H-imidazol-4-yl)propan-2-ol]: the IC50 or EC50 (potency, activation or inhibition) is below 1 µM.
As for `COc1ccc(-c2ccc(-n3cc(C(C)(C)O)nc3Cc3cccc(Cl)c3Cl)c(Cl)c2)cc1S(C)(=O)=O` [Example 457, 2-(1-(3-chloro-4′-methoxy-3′-(methyl-sulfonyl)biphenyl-4-yl)-2-(2,3-dichlorobenzyl)-1H-imidazol-4-yl)propan-2-ol], the IC50 or EC50 (potency, activation or inhibition) was below 1 µM.
Consider `CC(C)(O)c1cn(-c2ccc(-c3cccc(S(C)(=O)=O)c3)cc2)c(-c2c(Cl)cccc2-c2cccc(S(C)(=O)=O)c2)n1` [Example 458, 2-(2-(3-chloro-3′-(methyl-sulfonyl)biphenyl-2-yl)-1-(3′-(methylsulfonyl)biphenyl-4-yl)-1H-imidazol-4-yl)propan-2-ol], for which the IC50 or EC50 (potency, activation or inhibition) lay in the range of 1 to 10 µM.
For `CS(=O)(=O)c1cccc(-c2ccc(-n3cc(C(=O)NCC(F)(F)F)nc3-c3c(Cl)cccc3Cl)c(Cl)c2)c1` [Example 459, 1-(3-chloro-3′-(methyl-sulfonyl)biphenyl-4-yl)-2-(2,6-dichlorophenyl)-N-(2,2,2-trifluoro-ethyl)-1H-imidazole-4-carboxamide], the IC50 or EC50 (potency, activation or inhibition) is below 1 µM.
With `CS(=O)(=O)c1cccc(-c2ccc(-n3cc(C(=O)NCCF)nc3-c3c(Cl)cccc3Cl)c(Cl)c2)c1` [Example 460, 1-(3-chloro-3′-(methyl-sulfonyl)biphenyl-4-yl)-2-(2,6-dichlorophenyl)-N-(2-fluoroethyl)-1H-imidazole-4-carboxamide], the IC50 or EC50 (potency, activation or inhibition) is below 1 µM.
Under `CS(=O)(=O)c1cccc(-c2ccc(-n3cc(C(=O)NCC(=O)O)nc3-c3c(Cl)cccc3Cl)c(Cl)c2)c1` [Example 461, 2-(1-(3-chloro-3′-(methyl-sulfonyl)biphenyl-4-yl)-2-(2,6-dichlorophenyl)-1H-imidazole-4-carboxamido)acetic acid] stands above 10 µM; under `CCS(=O)(=O)c1cccc(-c2ccc(-n3cc(C(=O)NCC(F)(F)F)nc3-c3c(Cl)cccc3Cl)c(Cl)c2)c1` [Example 462, 1-(3-chloro-3′-(ethylsulfonyl)biphenyl-4-yl)-2-(2,6-dichlorophenyl)-N-(2,2,2-trifluoroethyl)-1H-imidazole-4-carboxamide], below 1 µM.
